From patent US8530235B2, “Medium that supports culture of an oocyte and modulation of granulosa cell apoptosis” (Adelaide Research & Innovation Pty Ltd., priority 2005, dated 2013)

Tests used:
Smad2/3 = assay: CAGA-luciferase activity, activation of Smad2/3 (Example 21); format: cell-based
Source text: FIGS. 15A and 15B show the effect of various concentrations of the AlK4/5/7 inhibitor on TGF-β1 stimulated CAGA luciferase activity.

[1] = system: cumulus expansion of oocytectomised (OOX) complexes; assay: FSH-induced cumulus expansion score of OOX complexes; format: cell-based, mice; details: OOX complexes
Method: Members of the TGF-β superfamily are prime candidates for the mouse cumulus expansion-enabling factor (CEEF). This study was conducted to examine TGF-β superfamily processes regulating cumulus expansion. COCs were collected from eGG-primed mice and the oocyte microsurgically removed to generate oocytectomised (OOX) complexes. […] The type-I receptors for GDF9 and […] are ALK5 and ALK4, respectively. We tested the ability of an ALK4/5/7 kinase inhibitor to neutralize cumulus expansion.

granulosa cell = assay: GDF-9 and oocyte-induced granulosa cell DNA synthesis (Example 21); format: cell-based
Source text: FIGS. 14A and 14B show the effect of an AlK4/5/7 inhibitor on either GDF-9, TGF-β1, or oocyte induced DNA synthesis (Panel A), and the effect of various concentrations of the inhibitor on GDF-9 and oocyte induced DNA synthesis (Panel B).

[2] = system: Smad 1-responsive BRE-luciferase reporter; assay: Smad 1-responsive BRE-luciferase reporter in mural granulosa cells from large antral follicles; format: cell-based, marmoset monkey, Callithrix jacchus; details: 48 h; 0.5 ng/ml TGFβ1, 88-265 ng/ml GDF9, 50 ng/ml BMP7 or 60 mouse oocytes
Method: (§1) FIGS. 18A and 18B show the activation of the TGF-β signalling pathway by GDF9 and oocytes. MGC from large follicles were transiently transfected with either a Smad 3-responsive CAGA-luciferase reporter construct (A) or a Smad 1-responsive BRE-luciferase reporter construct (B). Cells were subsequently left untreated, treated with 0.5 ng/ml TGFβ1, 88-265 ng/ml GDF9, 50 ng/ml BMP7 or co-cultured with 60 mouse oocytes. Cells were cultured for 48 h after which time luciferase activity was measured from cell extracts. Bars represent means+/− SEM from 3 replicate experiments expressed as a fold change relative to control.
(§2) Luciferase reporter constructs responsive to specific phosphorylated Smads were used to detect the activation of mural GC Smad proteins by recombinant GDF9 Mural GCs were collected and processed as described above, except cells were given a final wash in DMEM(MP Biomedicals, Seven Hills, Australia)+2% FCS (Trace Biosciences, Castle Hill, Australia). Following the final wash, cells were transferred to individual wells of a 96-well plate (Falcon) and cultured at 1.6×10^5 cells/ml. After 4 hours of culture, cells were transiently transfected with 50 ng of luciferase reporter construct DNA using Fugene 6 (Roche Diagnostics, Castle Hill, Australia). 18 hours after transfection, medium was aspirated from cells and replaced with DMEM supplemented with 0.1% FCS. Various ligands were added to cells at this point (see below) and the culture period extended for a further 48 hours. Experiments were terminated by removing media from wells and freezing plates at −20° C. […]
(§3) Seven adult female marmosets were primed with […] for 6 days, whole ovaries were removed on day 7, follicles manually excised, and GC were then collected from 3 size classes: periantral (PA; 0.42-0.66 mm), small antral (SA; 0.66-1.5 mm) and large antral (LA; >1.5 mm). […] In order to determine the effects of GDF9 on marmoset GC proliferation, we employed a GC bioassay whereby after 24 h ^3H-thymidine incorporation is assessed as an indicator of DNA synthesis and cellular proliferation. […]

[3] = system: Smad 3-responsive CAGA-luciferase reporter; assay: Smad 3-responsive CAGA-luciferase reporter in mural granulosa cells from large antral follicles; format: cell-based, marmoset monkey, Callithrix jacchus; details: 48 h; 0.5 ng/ml TGFβ1, 88-265 ng/ml GDF9, 50 ng/ml BMP7 or 60 mouse oocytes
Method: as §1, §2, §3

cumulus cells = assay: Cumulus cell apoptosis in oocytectomized complexes (OOX) and COC, TUNEL with confocal microscopy; format: cell-based, Bovine; details: OOX treated with 100 ng/ml BMP-7 and/or 10% BMP-15
Method: Bovine ovaries were collected from local abattoir and transported to the laboratory in warm saline (30-35° C.). Cumulus-oocyte complexes (COC) were aspirated from antral follicles (2- to 8-mm diameter) using an 18-gauge needle and a 10-ml syringe containing ˜2 ml aspiration media (Hepes-buffered Tissue Cultured Medium-199: TCM-199, ICN Biochemicals, Irvine, Calif., USA) supplemented with 50 μg/ml kanamycin (Sigma-Aldrish, St. louis, Mo.), 4 mg/ml fatty acid-free bovine serum albumin (FAF-BSA) (ICPbio ltd, Auckland, NZ). Intact COC with compact cumulus vestment greater than five cell layers and evenly pigmented cytoplasm were selected under a dissecting microscope and washed twice in Hepes-buffered TCM-199 and once in corresponding culturing media.
The cytoplasm of each oocyte was microsurgically removed from the COC (oocytectomy) using a micromanipulator as described in Buccione et al (Buccione et al. (1990) Dev Biol 138, 16-25.). The resulting oocytectomized complex (OOX) consists of a hollow zona pellucida surrounded by several layers of intact CC.
Denuded oocytes (DO) were generated by removing CC from COC by vortexing for approximately 4 minutes in 2 ml H-TCM-199/BSA. Any remaining CC were removed by repeated passage of the oocytes through a fine-bore fire-polished glass pipette in H-TCM-199/BSA.
CC apoptoic DNA was detected using TUNEl (Roche Diagnostic, Penzberg, Germany) according to the manufacturer's instructions. Briefly, following culture COC and OOX complexes were washed twice in PBS (pH 7.4) containing 1% BSA, fixed in 4% paraformaldehyde in PBS (pH 7.4) overnight at 4° C. and washed twice with PBS/BSA before placing on Cell-Tak-coated coverslips (Beckton Dickinson Biosciences, Franklin lakes, N.J.). Complexes were then permeabilized in 0.11/u Triton X-100 in 0.1% sodium citrate for 1 hour at room temperature and washed 3 times in PBS/BSA. The complexes were then incubated in fluorescein-conjugated dUTP and terminal deoxynucleotide transferase (TUNEl reagents, Roche) for 1 hour at 37° C. in the dark. Positive controls were incubated in DNAse 1 (0.005 U/µl), which cleaves all DNA, for 20 minutes at room temperature and washed twice in PBS/BSA before TUNEl. Negative controls were incubated in fluorescein-dUTP in the absence of TdT. After TUNEl, complexes were washed twice in PBS/BSA and counterstained with propidium iodide 0.5 μg/ml (PI) plus RNase A (0.1 mg/ml) for 1 hour at room temperature in the dark to label all nuclei. Complexes were then washed twice in PBS/BSA and mounted with slight coverslip compression in VectaShield anti-bleaching solution (Vector labs, Burlingame, Calif.), and stored in the dark at 4° C. for confocal analysis.
Apoptosis in COC and OOX was visualised and quantified using confocal microscopy. Dual fluorescence emission from CC was detected using a Nikon C1 Confocal Scanning Head and a Nikon TE2000E microscope (Nikon, Tokyo, Japan). Simultaneous emission capture of the apoptotic signal (fluorescein, lacer excitation 488 nm, emission 510-530 nm) and the nuclear signal (propidium iodide, excitation lacer 532, emission 590-640 nm) was performed.
In order to generate an accurate representation of the overall apoptotic incidence for all complexes, the depth of each complex was measured through a Z series to divide the construct into three percentiles (optical Z plane sections) at 25%, 50% and 75%. These optical section images were acquired and saved as independent colour channels (green, apoptotic cumulus fluorescence and red, nuclear cumulus fluorescence). The captured images were then processed in Scanalytics IPlab software Version 3.6. (Scanalytics, Fairfax, Va.). Quantification of CC number (for each colour channel) was independently measured using a macro script utilizing an auto segmentation filter for each optical section percentile (3 optical “z”-plane sections for each complex).

| TGF-β1, GDF9 and oocyte-stimulated activation of Smad2/3 molecules (CAGA-luciferase activity) with inhibitor (Smad2/3) | Molecule | GDF-9 and oocyte-induced cumulus expansion with inhibitor [1] | GDF-9 and oocyte-induced granulosa cell DNA synthesis with inhibitor (granulosa cell) | BRE-luciferase activity compared to control levels [2] | CAGA-luciferase activity above control levels [3] | effect on cumulus cell apoptosis (cumulus cells) |
| --- | --- | --- | --- | --- | --- | --- |
| completely abrogated | NC(=O)c1ccc(-c2nc(-c3ccccn3)c(-c3ccc4c(c3)OCO4)[nH]2)cc1 [ALK4/5/7 kinase inhibitor] | completely neutralised | completely abrogated |  |  |  |
|  | TGF-β1: Transforming growth factor beta 1 [reference compound] |  |  | not activated | 19 fold |  |
|  | BMP-7: Recombinant human BMP-7 obtained from R&D systems (protein, UniProt P18075 293-431, looked up) Bone morphogenetic protein 7: STGSKQRSQNRSKTPKNQEALRMANVAENSSSDQRQACKKHELYVSFRDLGWQDWIIAPEGYAAYYCEGECAFPLNSYMNATNHAIVQTLVHFINPETVPKPCCAPTQLNAISVLYFDDSSNVILKKYRNMVVRACGCH |  |  | 31 fold | not stimulated | significantly reduced |
